Reference: patent US11554172B2, “Phosphonate linkers and their use to facilitate cellular retention of compounds” (priority 2016, dated 2023)

Each molecule was assayed on GILZ gene (assay: GILZ gene assay (qPCR, HUT78 / 786-O cells)). Conditions: at 10 uM.
Assay type: cell-based
Protocol: GILZ gene assays were conducted as follows. HUT78 cells were cultured in IMEM plus 20% heat inactivated FBS and cell density was maintained between 0.1 to 1.2 million/mL. 786-O cells were cultured in RPMI plus 10% heat inactivated FBS. Actively growing cells were harvested and resuspended in HBSS with 2% FBS at 1.1 million cells per mL then dispensed to 384-well V-bottom plates at 45 μL per well. Serially diluted ADC solution was added to the cell plate (5 μL per well) and mixed for 2 min. Cells were then cultured at 37° C., at 5% CO2 for a designated time before supernatant was removed. Cells were harvested in lysis buffer from the Cells-to-Ct kit (40 μL, Life Technologies, 4391851C) following the supplier's protocol and mixed for 10 min followed by addition of 5 μL per well of stop solution from the kit. cDNA was synthesized with a reverse transcription kit (Life Technologies, 4391852C) follow by qPCR using the TaqMan gene expression master mix (Life Technologies, 4369016) with GILZ gene assay (Life Technologies, Hs00608272_m1) and GAPDH assay (Hs2758991_g1) in a duplex format with 3-4 technical replicates.
“(6-(3-((3aR,4aS,4bS,11aR,11bS,12S,13aS,13bS)-12-hydroxy-13b-(2-hydroxyacetyl)-11a,13a-dimethyl-2-propyl-4,4a,5,6,11,11a,11b,12,13,13a-decahydro-[1,3]dioxolo[4″,5″:3′,4′]cyclopenta[1′,2′:5,6]naphtho[,2-f]indazol-8(3aH,4bH,13bH)-yl)phenoxy)hexyl)phosphonic acid [Compound 27]” was tested, and the “GILZ Max” value was 80% (at.

Same assay, conditions: read-out: GILZ EC50
With C[C@@H]1C[C@H]2[C@@H]3C[C@H](F)C4=CC(=O)C=C[C@]4(C)[C@@]3(F)[C@@H](O)C[C@]2(C)[C@@]1(OC(=O)CCCCCP(=O)(O)O)C(=O)SCF [Compound 19, (6-(((6S,8S,9R,10S,11S,13S,14S,16R,17R)-6,9-difluoro-17-(((fluoromethyl)thio)carbonyl)-11-hydroxy-10,13,16-trimethyl-3-oxo-6,7,8,9,10,11,12,13,14,15,16,17-dodecahydro-3H-cyclopenta[a]phenanthren-17-yl)oxy)-6-oxohexyl)phosphonic acid] the EC50 was 1290 nM. In the case of “(6-(3-((3aR,4aS,4bS,11aR,11bS,12S,13aS,13bS)-12-hydroxy-13b-(2-hydroxyacetyl)-11a,13a-dimethyl-2-propyl-4,4a,5,6,11,11a,11b,12,13,13a-decahydro-[1,3]dioxolo[4″,5″:3′,4′]cyclopenta[1′,2′:5,6]naphtho[,2-f]indazol-8(3aH,4bH,13bH)-yl)phenoxy)hexyl)phosphonic acid [Compound 27]”, the EC50 is reported as 2760 nM.

What follows are molecules tested on MDCKII cells (assay: Apparent permeability in MDCKII cells). Conditions: Papp, average of A to B and B to A, 1 μM test compound, t=3 hr.
Assay type: in vitro ADME
Protocol: Determination of apparent permeability was as follows. MDCKII cells (kindly provided by the Netherlands Cancer Institute, under a licensing agreement) were seeded on to 96-well transwell culture plates (Millipore Corp, Billerica, Mass.) and used in experiments after five days in culture. […] Substrate solution (150 μL) was added to either the apical (A) or the basolateral (B) compartment of the culture plate, and buffer (150 μL; HBSS, 10 mM HEPES, pH 7.4) with 10 μM cyclosporine A was added to the compartment opposite to that containing the substrate. At t=3 hr, 50 μL samples were removed from both sides of monolayers dosed with test compound and placed in 96 well plates, 50 μL internal standard (1 μM labetolol) and 100 μL HBSS was added to the samples. Samples were analyzed by LC/MS/MS using an Applied Biosystems SCIEX API 5000 triple quadruple mass spectrometer (Concord, ON, Canada) with a TurboIonSpray ion source in the positive ion mode. A Thermo Scientific Transcend LX-2 system (Franklin, Mass.) was coupled to the API 5000 with a flow rate of 800 μL/min to direct sample into the mass spectrometer.
Papp was expressed as 10-6 cm/s.
With CCCC1O[C@@H]2C[C@H]3[C@@H]4CCC5=CC(=O)C=C[C@]5(C)[C@H]4[C@@H](O)C[C@]3(C)[C@]2(C(=O)CO)O1 (stereo partly shown) [Budesonide, reference compound] the “MDCK Permeability (cm × 10-6/sec)” value was 31.6 cm × 10-6/sec. In the case of CCC(=O)O[C@]1(C(=O)SCCCCCCCCCCP(=O)(O)O)[C@H](C)C[C@H]2[C@@H]3C[C@H](F)C4=CC(=O)C=C[C@]4(C)[C@@]3(F)[C@@H](O)C[C@@]21C [Compound 3, (10-(((6S,8S,9R,10S,11S,13S,14S,16R,17R)-6,9-difluoro-11-hydroxy-10,13,16-trimethyl-3-oxo-17-(propionyloxy)-6,7,8,9,10,11,12,13,14,15,16,17-dodecahydro-3H-cyclopenta[a]phenanthrene-17-carbonyl)thio)decyl)phosphonic acid], the “MDCK Permeability (cm × 10-6/sec)” value is reported as 1.04 cm × 10-6/sec. With CCC(=O)O[C@]1(C(=O)SCCCCP(=O)(O)O)[C@H](C)C[C@H]2[C@@H]3C[C@H](F)C4=CC(=O)C=C[C@]4(C)[C@@]3(F)[C@@H](O)C[C@@]21C [Compound 4] the “MDCK Permeability (cm × 10-6/sec)” value was 1.72 cm × 10-6/sec. In the case of C[C@@H]1C[C@H]2[C@@H]3C[C@H](F)C4=CC(=O)C=C[C@]4(C)[C@@]3(F)[C@@H](O)C[C@]2(C)[C@@]1(O)C(=O)SCCCCP(=O)(O)O [Compound 5], the “MDCK Permeability (cm × 10-6/sec)” value is reported as 1.84 cm × 10-6/sec. In the case of CCC(=O)O[C@]1(C(=O)SCCCCCCP(=O)(O)O)[C@H](C)C[C@H]2[C@@H]3C[C@H](F)C4=CC(=O)C=C[C@]4(C)[C@@]3(F)[C@@H](O)C[C@@]21C [Compound 7], the “MDCK Permeability (cm × 10-6/sec)” value is reported as 2 cm × 10-6/sec. C[C@@H]1C[C@H]2[C@@H]3C[C@H](F)C4=CC(=O)C=C[C@]4(C)[C@@]3(F)[C@@H](O)C[C@]2(C)[C@@]1(O)C(=O)SCCCCCCCCCCP(=O)(O)O [Compound 8] was tested, and the “MDCK Permeability (cm × 10-6/sec)” value was 2.8 cm × 10-6/sec. In the case of C[C@@H]1C[C@H]2[C@@H]3C[C@H](F)C4=CC(=O)C=C[C@]4(C)[C@@]3(F)[C@@H](O)C[C@]2(C)[C@@]1(O)C(=O)SCCCCCCP(=O)(O)O [Compound 10], the “MDCK Permeability (cm × 10-6/sec)” value is reported as 1.9 cm × 10-6/sec. In the case of C[C@@H]1C[C@H]2[C@@H]3C[C@H](F)C4=CC(=O)C=C[C@]4(C)[C@@]3(F)[C@@H](O)C[C@]2(C)[C@@]1(OC(=O)CCCCCCCCP(=O)(O)O)C(=O)SCF [Compound 18, (9-(((6S,8S,9R,10S,11S,13S,14S,16R,17R)-6,9-difluoro-17-(((fluoromethyl)thio)carbonyl)-11-hydroxy-10,13,16-trimethyl-3-oxo-6,7,8,9,10,11,12,13,14,15,16,17-dodecahydro-3H-cyclopenta[a]phenanthren-17-yl)oxy)-9-oxononyl)phosphonic acid], the “MDCK Permeability (cm × 10-6/sec)” value is reported as less than 0.9 cm × 10-6/sec. With CCCC1O[C@@H]2C[C@H]3[C@@H]4CCC5=Cc6c(cnn6-c6cccc(OCCCCP(=O)(O)O)c6)C[C@]5(C)[C@H]4[C@@H](O)C[C@]3(C)[C@]2(C(=O)CO)O1 (stereo partly shown) [Compound 28] the “MDCK Permeability (cm × 10-6/sec)” value was 1.6 cm × 10-6/sec. CCCC1O[C@@H]2C[C@H]3[C@@H]4CCC5=Cc6c(cnn6-c6ccc(OCCCCP(=O)(O)O)cc6)C[C@]5(C)[C@H]4[C@@H](O)C[C@]3(C)[C@]2(C(=O)CO)O1 (stereo partly shown) [Compound 30] was tested, and the “MDCK Permeability (cm × 10-6/sec)” value was 1.9 cm × 10-6/sec. For CCCC1O[C@@H]2C[C@H]3[C@@H]4CCC5=Cc6c(cnn6-c6ccc(OCCCCCCP(=O)(O)O)cc6)C[C@]5(C)[C@H]4[C@@H](O)C[C@]3(C)[C@]2(C(=O)CO)O1 (stereo partly shown) [Compound 31], the “MDCK Permeability (cm × 10-6/sec)” value was 4.1 cm × 10-6/sec. With CCC(=O)O[C@]1(C(=O)SCF)[C@H](C)C[C@H]2[C@@H]3C[C@H](F)C4=CC(=O)C=C[C@]4(C)[C@@]3(F)[C@@H](O)C[C@@]21C [Fluticasone Propionate, reference compound] the “MDCK Permeability (cm × 10-6/sec)” value was 21.5 cm × 10-6/sec.

The molecules below were run against GR full length protein (glucocorticoid receptor) (Homo sapiens (Human), UniProt P04150) (assay: PolarScreen Glucocorticoid Receptor Competitor Assay (GR binding)). Conditions: fluorescence polarisation competitor assay, 2-4 hours at room temperature; read-out: GR Bind IC50.
Sequence of GR full length protein (glucocorticoid receptor) (P04150 whole entry): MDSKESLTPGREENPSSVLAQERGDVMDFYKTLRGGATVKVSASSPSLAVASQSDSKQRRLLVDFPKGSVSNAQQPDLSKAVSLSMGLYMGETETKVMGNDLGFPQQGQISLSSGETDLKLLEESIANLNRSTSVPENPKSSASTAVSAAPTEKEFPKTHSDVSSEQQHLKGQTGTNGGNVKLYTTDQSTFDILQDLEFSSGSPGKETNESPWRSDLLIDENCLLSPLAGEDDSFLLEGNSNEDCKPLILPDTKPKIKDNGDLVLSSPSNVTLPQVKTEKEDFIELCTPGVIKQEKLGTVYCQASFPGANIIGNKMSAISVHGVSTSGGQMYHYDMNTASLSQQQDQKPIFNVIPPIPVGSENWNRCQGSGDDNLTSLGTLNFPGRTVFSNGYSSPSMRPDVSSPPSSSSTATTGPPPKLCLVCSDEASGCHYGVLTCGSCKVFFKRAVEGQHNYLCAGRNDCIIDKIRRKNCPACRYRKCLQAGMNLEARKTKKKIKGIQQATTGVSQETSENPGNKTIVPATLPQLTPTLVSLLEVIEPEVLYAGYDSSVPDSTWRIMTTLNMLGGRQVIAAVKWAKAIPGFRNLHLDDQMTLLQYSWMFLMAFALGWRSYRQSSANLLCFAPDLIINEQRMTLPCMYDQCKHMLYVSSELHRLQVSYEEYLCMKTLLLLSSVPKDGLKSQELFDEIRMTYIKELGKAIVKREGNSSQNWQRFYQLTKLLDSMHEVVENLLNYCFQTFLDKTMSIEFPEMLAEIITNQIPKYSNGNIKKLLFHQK
Protocol: The potency of binding to gucocorticoid receptor by small molecule compounds was measured with the PolarScreen™ Glucocorticoid Receptor Competitor Assay Kit, Red (Life Technology, Catalog #A15898) according to the procedure in the kit. In brief, after compounds were diluted and transferred into assay plates, the fluormone GS red and GR full length protein were subsequently added into the assay plates, along with the positive and negative controls. The samples were mixed on a shaker for 1 minute and then the plates were incubated at room temperature for 2-4 hours with minimal light exposure. The plates were read with an Envision and the relative fluorescent signals were calculated. The data were plotted in GraphPad Prism and the EC50 values were calculated with non-linear regression curve fit of the data in GraphPad Prism.
C[C@@H]1C[C@H]2[C@@H]3C[C@H](F)C4=CC(=O)C=C[C@]4(C)[C@@]3(F)[C@@H](O)C[C@]2(C)[C@@]1(OC(=O)CCCCCP(=O)(O)O)C(=O)SCF [Compound 19, (6-(((6S,8S,9R,10S,11S,13S,14S,16R,17R)-6,9-difluoro-17-(((fluoromethyl)thio)carbonyl)-11-hydroxy-10,13,16-trimethyl-3-oxo-6,7,8,9,10,11,12,13,14,15,16,17-dodecahydro-3H-cyclopenta[a]phenanthren-17-yl)oxy)-6-oxohexyl)phosphonic acid] showed an IC50 of 0.14 nM.
